Biological target: T1, axTRPV1 (Ambystoma mexicanum, UniProt A0A5K7X138)
T1 construct: gene TRPV1; full-length cDNA in pGEMHE, expressed in Xenopus oocytes; cloned in the authors' earlier work
T1 sequence (A0A5K7X138 1-858): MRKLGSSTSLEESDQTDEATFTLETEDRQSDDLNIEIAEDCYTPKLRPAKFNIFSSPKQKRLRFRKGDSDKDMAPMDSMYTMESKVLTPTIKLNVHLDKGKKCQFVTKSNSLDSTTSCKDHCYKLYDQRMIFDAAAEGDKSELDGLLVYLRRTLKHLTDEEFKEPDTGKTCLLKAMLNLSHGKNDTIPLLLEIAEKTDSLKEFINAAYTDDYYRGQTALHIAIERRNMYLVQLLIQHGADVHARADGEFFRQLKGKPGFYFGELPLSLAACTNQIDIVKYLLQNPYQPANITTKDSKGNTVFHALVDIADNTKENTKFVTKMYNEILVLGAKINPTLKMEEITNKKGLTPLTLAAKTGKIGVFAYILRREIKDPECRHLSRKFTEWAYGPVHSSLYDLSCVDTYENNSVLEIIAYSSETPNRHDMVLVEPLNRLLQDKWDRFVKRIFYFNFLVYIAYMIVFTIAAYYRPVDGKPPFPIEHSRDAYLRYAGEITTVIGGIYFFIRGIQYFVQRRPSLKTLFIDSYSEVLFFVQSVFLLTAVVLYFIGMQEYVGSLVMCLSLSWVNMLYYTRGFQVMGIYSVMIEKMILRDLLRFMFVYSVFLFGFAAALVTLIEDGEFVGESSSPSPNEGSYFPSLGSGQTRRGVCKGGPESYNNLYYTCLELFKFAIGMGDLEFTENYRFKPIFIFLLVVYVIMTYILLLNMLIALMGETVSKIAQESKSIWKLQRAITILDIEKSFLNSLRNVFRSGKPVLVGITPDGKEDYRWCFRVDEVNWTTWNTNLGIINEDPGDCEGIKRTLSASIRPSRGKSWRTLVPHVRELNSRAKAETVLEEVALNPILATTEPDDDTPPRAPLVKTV
Assay: two-electrode voltage clamp, Xenopus oocytes
Assay type: cell-based
Conditions: agonist, dose-dependent activation; current at -80 mV; bath pH 7.4

## COc1cc(CNC(=O)CCCC/C=C/C(C)C)ccc1O [capsaicin]
  two-electrode voltage clamp, Xenopus oocytes: Capsaicin and acid activated all TRPV1s in a dose-dependent manner

Source: article PMC10175561, “Two single-point mutations in Ankyrin Repeat one drastically change the threshold temperature of TRPV1” (Nature Communications, 2023)
